Patent publication US4879311A, “Derivatives of benzoyloxyacetic acid, and preparation and formulations thereof for therapeutic use” (Inverni della Beffa S.p.A., priority 1987, dated 1989)
Where a name gives a salt, the structure may show the parent alone.

Experiment: pH of aqueous solution
Format: physicochemical
Conditions: 1% aqueous solution

Cc1ccc(Cl)c(Nc2ccccc2C(=O)OCC(=O)O)c1Cl [Ic, d,l-lysine salt (Ic) of 2-[(2,6-dichloro-3-methylphenyl)-amino]benzoyloxyacetic acid]
pH in 1% aqueous solution: 6.75
